Laboratory results from patent publication US12220446B2, “Use of upstream open reading frame 45aa-uORF nucleotide sequence of PTEN gene and polypeptide coded by 45aa-uORF” (THE FIRST AFFILIATED HOSPITAL, SUN YAT-SEN UNIVERSITY, priority 2017, dated 2025).

How the values were obtained:
U251 cells [1] = assay: Cell viability with CCK-8 after adding chemically synthesized polypeptide; assay type: cell-based; settings: 25 μM, washed out after 4 hours, culture for 72 hours
U251 cells [2] = assay: Ability of FITC-labelled micropeptide to enter cells (fluorescence microscopy); assay type: cell-based; settings: FITC-attached micropeptide, 20 μM, 4 hours
Description: U251 cells were inoculated onto a glass slide at the density of 50%, and different concentrations of PTEN-45aa micropeptide t attached with FITC fluorescent groups (the micropeptide was dissolved in DMSO with a concentration being 20 μg/μL) were added to treat cells for 4 hours, then fixed with Faure Marin, and observed and photographed under a fluorescence microscope.

[3] = test system: U251 neuroglioma transplanted tumors; assay: U251 tumor subcutaneously implanted in nude mice, intratumoral peptide injection; assay type: in vivo; settings: 25 μg/tumor every other day, 5-6 medications, vs control polypeptide of shuffled sequence
Description: In one aspect, the anti-tumor ability of the 45aa-uORF coded micropeptide is verified in vivo by animal experiments in the present invention. Mice are subcutaneously inoculated with 2 million U251 neuroglioma cells. Thirty days later, transplanted tumors are treated with the chemically synthesized 45aa-uORF coded micropeptide (25 ug/tumor) every other day.
U251 cells were inoculated to the left and right sides of nude mice by 2 million at each point. Thirty days later, the formation of tumors was observed, and the tumors were averagely divided into a control group and an experimental group by size (five nude mice and ten tumors in each group). The control group was injected with a control polypeptide every other day, and the experimental group was injected with the 45aa-uORF polypeptide every other day. Each tumor was injected with 25 μg synthetic peptide. The long diameters and short diameters of the tumors were measured before the medication, and after 5-6 times medications, the nude mice were sacrificed, and tumors were taken out, photographed and weighed. Tumor volume=½*long diameter*the square of short diameter

U251 neuroglioma cells = assay: Lentiviral overexpression of 45aa-uORF in U251 cells: cell cycle, CCK-8 growth curve, clone formation assay, soft agar; assay type: cell-based; settings: stably overexpressed via lentivirus vector vs U251-GFP control cells
Description: A vector for overexpressed 45aa-uORF-GFP (the skeleton of the vector is pCDH-CMV-MCS-EF1-Puro) was constructed and then used to transfect into HEK-293T cells together with lentivirus skeleton vectors PSPAX2, PMD2G in a ratio of 1:3:1 to package the lentivirus. The medium supernatants with the lentivirus were collected at 48 hours and 72 hours, respectively, and then used to infect U251 cells (added with 8 μg/ml polybrene to improve the infection efficiency). Puromycin ([…]) was employed for screening and removed three days later, and then the cells were proliferated normally. […]
1.5 Million U251 glioma cells of lentivirus overexpressed 45aa-uORF were inoculated into a T25 culture flask. […] Then, after being centrifuged and washed with PBS once, the precipitate was resuspended in 25 μg/mL Propidium Iodide (PI, sigma)/PBS solution, stained for 30 minutes away from light, and then detected on cell-cycle distribution thereof.
U251-GFP control cells or U251-45aa-uORF-GFP cells were inoculated into a 96-well plate in a quantity of 2000 cells per well. […] After cell adherence to the wall, the CCK-8 (Dojindo, CK04) reagent was added by 10 μL per well every 24 hours for culture at 37° C. for 1-4 hours, and then the absorbance (OD) of […] was detected. The absorbance value was directly proportional to the number of cells. […]

[4] = listed as 45aa-uORF coded polypeptide

Sequence: MRDGGGRGPEPLSAPVSSRGGSALGEPAGLRRRQRRRFSPPLRLF (listed as Homo sapiens) [PTEN-45aa, oligopeptide of 45 amino acids coded by the 45aa-uORF in the 5′UTR of human PTEN gene]
- growth and proliferation of glioma cells (cell viability, CCK-8) (U251 cells [1]; listed as 45aa-uORF coded micropeptide): significantly suppress the growth and proliferation
- growth and proliferation of glioma cells (cell viability, CCK-8) (U251 cells [1]; [4]): significantly suppress the growth of glioma cells
- ability of the micropeptide to enter cells (U251 cells [2]; [4]): can enter U251 cells
- ability of the micropeptide to enter cells (U251 cells [2]; listed as PTEN-45aa micropeptide): could enter the U251 cells smoothly
- growth and formation of U251 transplanted tumors [3]: significantly suppress the growth and formation of the tumors
- growth and proliferation of U251 glioma cells (U251 neuroglioma cells): significantly suppress the growth and proliferation
- clone formation of U251 neuroglioma cells (CFA, soft agar) (U251 neuroglioma cells; two weeks): significantly suppress the growth, proliferation and clone formation
